Values after ≈ are worked out from the molar mass of the structure shown.
How the values were obtained:
Assay type in all cases: physicochemical
[1] = Droxidopa solubility at room temperature at different pH
[2] = Stability of droxidopa dissolved in diluents of different pH (0.5 mg/ml, room temperature, UPLC); conditions: for Total degradation, 24-hour Exposure / Total degradation, 48-hour Exposure: room temperature, 0.5 mg/ml
Protocol: Droxidopa was dissolved in 5 diluents at different pH and stored at room temperature for 24 or 48 hours in sealed glass containers. All solutions were prepared at a nominal concentration of 0.5 mg/ml. Percent degradation was determined by ultra-performance liquid chromatography (UPLC) on a Waters ACQUITY UPLC with a photodiode array (PDA) detector using a Waters ACQUITY BEH C18 1.7 um 2.1×50 mm column. Run conditions for the analyses were as follows: • Mobile phase A: 50 mM sodium phosphate pH 3.0 • Mobile phase B: Acetonitrile • Detection wavelength: 279 nm • Flow: 0.5 ml/min • Column temperature: 30 C • Injection volume: 2 μl • Gradient (linear transitions) are shown in Table 12A: Identification of the known components droxidopa and dihydroxybenzaldehyde was confirmed through retention time and spectral match against pure materials of known identity. Degradation results were quantified as a percent area of degradation peaks versus total area of all degradation/droxidopa peaks. Results for pH 10.0 and pH 12.0 samples were estimated at >90% due to a significant number of peaks present near the retention time of droxidopa.

[3] = Stability of saturated droxidopa solutions at room temperature (UPLC); conditions: for Stability of saturated droxidopa in solution: room temperature over 24 days; for Total degradation, 7 day Exposure / Total degradation, 24 day Exposure: saturated solution
Protocol: Saturated solutions of droxidopa were prepared in 3 diluents at different pH and stored at room temperature for up to 24 days in sealed containers. All solutions were prepared with an excess of droxidopa by combining 10 mg droxidopa per ml of diluent. Exposed samples were filtered and degradation as a percent of initial droxidopa amount was determined by ultra-performance liquid chromatography (UPLC) on a Waters ACQUITY UPLC with a photodiode array (PDA) detector using a Waters ACQUITY HSS PFP 1.8 μm 2.1×100 mm column. Run conditions for the analyses were as follows: • Mobile phase A: 50 mM ammonium formate pH 3.0 • Mobile phase B: Acetonitrile • Detection wavelength: 279 nm • Flow: 0.5 ml/min • Column temperature: 30 C • Injection volume: 1 μl • Gradient (linear transitions) are shown in Table 12B: […]

[4] = Solid state stability of droxidopa with pH modifiers under accelerated conditions 70° C./75% RH
Protocol: Droxidopa is stable in acidic solution, but degrades in neutral or alkaline conditions. […] When citric acid was present with the drug in solid state, e.g. powder or uncoated granules, droxidopa became unstable under accelerated conditions 70° C./75% RH. When these droxidopa granules/pellets were coated with a protective layer, and blended with citric acid, the drug degradation was reduced. Furthermore, a pH modifier monosodium citrate was used instead of citric acid and blended with droxidopa granules. Droxidopa was stable for 7 days under accelerated conditions 70° C./75% RH. […] Thus, salt based pH modifiers can be used to improve the stability of the droxidopa.

[5] = pH 3, 50 mM NaH2PO4 adjusted to pH 3.0 with Phosphoric acid
[6] = pH 7, 50 mM NaH2PO4 adjusted to pH 7.0 with 1N Sodium hydroxide
[7] = 16 mmol citric acid, room temperature
[8] = 16 mmol disodium citrate combined with 16 mmol citric acid to achieve pH 4.0, room temperature

N[C@H](C(=O)O)[C@H](O)c1ccc(O)c(O)c1 [droxidopa, (−)-threo-3-(3,4-Dihydroxyphenyl)-L-serine]
solubility ([1]; solution of pH 1.2 (composition not stated), pH 1.2, simulated gastric fluid): 15.5 mg/mL (≈ 72.7 mM)
solubility ([1]; solution of pH 3.0 (composition not stated), pH 3, aqueous buffer): 2.62 mg/mL (≈ 12.3 mM)
solubility ([1]; solution of pH 4.5 (composition not stated), pH 4.5, aqueous buffer): 2.35 mg/mL (≈ 11 mM)
solubility ([1]; solution of pH 5.5 (composition not stated), pH 5.5, aqueous buffer): 2.3 mg/mL (≈ 10.8 mM)
solubility ([1]; solution of pH 6.8 (composition not stated), pH 6.8, aqueous buffer): 2.47 mg/mL (≈ 11.6 mM)
Stability in solution ([2]; acidic solution): stable
Stability in solution ([2]; neutral or alkaline conditions): degrades
Total degradation, 24-hour Exposure ([2]; pH 1.2, 0.1N HCl): <0.05%
Total degradation, 48-hour Exposure ([2]; pH 1.2, 0.1N HCl): <0.05%
Total degradation, 24-hour Exposure [2, 5]: <0.05%
Total degradation, 48-hour Exposure [2, 5]: <0.05%
Total degradation, 24-hour Exposure [2, 6]: 0.39%
Total degradation, 48-hour Exposure [2, 6]: 1.23%
Total degradation, 24-hour Exposure ([2]; pH 10, 25 mM HCO2NH4 adjusted to pH 10.0 with NH4OH, estimated): >90%
Total degradation, 24-hour Exposure ([2]; pH 12, 0.01N NaOH, estimated): >90%
Stability of saturated droxidopa in solution ([3]; citrate buffer (pH 4.0)): stable
Stability of saturated droxidopa in solution ([3]; citric acid solution (pH 2.5)): stable
Total degradation, 7 day Exposure [3, 7]: 0.0%
Total degradation, 24 day Exposure [3, 7]: 0.1%
Total degradation, 7 day Exposure [3, 8]: 0.0%
Total degradation, 24 day Exposure [3, 8]: 0.1%
Total degradation, 7 day Exposure ([3]; Deionized water, room temperature): 0.1%
Solid state stability ([4]; citric acid present with the drug in solid state (powder or uncoated granules)): unstable
Solid state stability ([4]; droxidopa granules blended with monosodium citrate, 7 days): stable
Drug degradation in solid state ([4]; granules/pellets coated with a protective layer and blended with citric acid): reduced
